Patent US6875784B2, “Antimibicrobial [3.1.0.] bicyclic oxazolidinone derivatives” (priority 2002, dated 2005)
≈ marks a conversion by molar mass, not a printed value. Like-named read-outs stand apart in the source and are kept apart here.

Experiments:
Assay type in all cases: cell-based
H. influenzae 30063 = assay: MIC by agar dilution, H. influenzae 30063
Source text: (§1) The in vitro activity of compounds of the subject invention may be assessed by standard testing procedures such as the determination of minimum inhibitory concentration (MIC) by agar dilution as described in “Approved Standard. Methods for Dilution Antimicrobial Susceptibility Tests for Bacteria that Grow Aerobically,” 3rd ed., published 1993 by the National Committee for Clinical Laboratory standards, Villanova, Pa., USA.
(§2) The in vitro MICs of test compounds may be determined by a standard agar dilution method. A stock drug solution of each analog is prepared in a preferred solvent, usually DMSO:H2O (1:3). Serial 2-fold dilutions of each sample are made using 1.0 ml aliquots of sterile distilled water. To each 1.0 ml aliquot of drug is added 9 ml of molten Mueller Hinton agar medium. The drug-supplemented agar is mixed, poured into 15×100 mm petri dishes, and allowed to solidify and dry prior to inoculation.
(§3) Vials of each of the test organisms are maintained frozen in the vapor phase of a liquid nitrogen freezer. Test cultures are grown overnight at 35° C. on the medium appropriate for the organism. Colonies are harvested with a sterile swab, and cell suspensions are prepared in Trypticase Soy broth (TSB) to equal the turbidity of a 0.5 McFarland standard. A 1:20 dilution of each suspension is made in TSB. The plates containing the drug supplemented agar are inoculated with a 0.001 ml drop of the cell suspension using a Steers replicator, yielding approximately 10^4 to 10^5 cells per spot. The plates are incubated overnight at 35° C.
(§4) Following incubation the Minimum Inhibitory Concentration (MIC μg/ml), the lowest concentration of drug that inhibits visible growth of the organism, is read and recorded.
(§5) The in vitro MICs of test compounds were determined by a standard agar dilution method. A stock drug solution of each analog was prepared in the preferred solvent, usually DMSO:H2O (1:3). Serial 2-fold dilutions of each sample are made using 1.0 ml aliquots of sterile distilled water. To each 1.0 ml aliquot of drug was added 9 ml of molten Mueller Hinton agar medium The drug-supplemented agar was mixed, poured into 15×100 mm petri dishes, and allowed to soldify and dry prior to inoculation.
(§6) Vials of each of the test organisms are maintained frozen in the vapor phase of a liquid nitrogen freezer. Test cultures are grown overnight at 35° C. on the medium appropriate for the organism. Colonies are harvested with a sterile swab, and cell suspensions are prepared in Trypticase Soy broth (TSB) to equal the turbidity of a 0.5 McFarland standard. A 1:20 dilution of each suspension was made in TSB. The plates containing the drug supplemented agar are inoculated with a 0.001 ml drop of the cell suspension using a Steers replicator, yielding approximately 10^4 to 10^5 cells per spot. The plates are incubated overnight at 35° C. Following incubation the Minimum Inhibitory Concentration (MIC μg/ml), the lowest concentration of drug that inhibits visible growth of the organism, was read and recorded.

S. aureus UC9213 = assay: MIC by agar dilution, S. aureus UC9213; conditions: Staphylococcus aureus
Source text: as §1, §2, §3, §4, §5, §6

S. pneumoniae UC9912 = assay: MIC by agar dilution, S. pneumoniae UC9912; conditions: Streptococcus pneumoniae
Source text: as §1, §2, §3, §4, §5, §6

[1] = Haemophilus influenzae, 30063, agar dilution, Mueller Hinton agar, overnight at 35° C., read-out: H. influenzae 30063 MIC
[2] = UC9213, agar dilution, Mueller Hinton agar, overnight at 35° C., read-out: S. aureus UC9213 MIC
[3] = UC9912, agar dilution, Mueller Hinton agar, overnight at 35° C., read-out: S. pneumoniae UC9912 MIC
[4] = Haemophilus influenzae, 30063, read-out: MIC against H. influenza (30063)

SMILES | MIC (H. influenzae 30063; [1]) [µg/mL] | MIC (S. aureus UC9213; [2]) [µg/mL] | MIC (S. pneumoniae UC9912; [3]) [µg/mL] | MIC (H. influenzae 30063; [4]) [µg/mL] | also measured
CC(=O)NC[C@H]1CN(c2cc(F)c(N3C[C@@H]4[C@H](C3)[C@H]4C(=O)N(C)C)c(F)c2)C(=O)O1 [Example 3] | – | – | – | > 64 | –
CCN(CC)C(=O)COC(=O)[C@H]1[C@@H]2CN(c3c(F)cc(N4C[C@H](CNC(=O)C(F)F)OC4=O)cc3F)C[C@@H]21 [Example 17] | – | – | – | > 64 | –
CC(=O)NC[C@H]1CN(c2ccc(N3CC4NC4C3)c(F)c2)C(=O)O1 (stereo partly shown) [Example 49] | – | – | – | – | MIC (H. influenzae 30063; Haemophilus influenzae, 30063, read-out: H. influenzae 30063 MIC, μg/mL): 8 µg/mL (≈ 23.9 µM); MIC (S. aureus UC9213; UC9213, read-out: S. aureus UC9213 MIC, μg/mL): 4 µg/mL (≈ 12 µM); MIC (S. pneumoniae UC9912; UC9912, read-out: S. pneumoniae UC9912 MIC, μg/mL): 0.5 µg/mL (≈ 1.5 µM)
CCN(CC)C(=O)COC(=O)[C@H]1[C@@H]2CN(c3c(F)cc(N4C[C@H](CNC(=O)C(Cl)Cl)OC4=O)cc3F)C[C@@H]21 [Example 13, 2-(diethylamino)-2-oxoethyl exo-(1R,5S)-3-[4-((5S)-5-{[(dichloroacetyl)amino]methyl}-2-oxo-1,3-oxazolidin-3-yl)-2,6-difluorophenyl]-3-azabicyclo[3.1.0]hexane-6-carboxylate] | – | – | – | > 64 | –
COC(=O)[C@H]1[C@@H]2CN(c3c(F)cc(N4C[C@H](CNC(=O)C(F)F)OC4=O)cc3F)C[C@@H]21 [Example 16, methyl exo-(1R,5S)-3-[4-((5S)-5-{[(difluoroacetyl)amino]methyl}-2-oxo-1,3-oxazolidin-3-yl)-2,6-difluorophenyl]-3-azabicyclo[3.1.0]hexane-6-carboxylate] | – | – | – | > 64 | –

The next lines start with results.

MIC (H. influenzae 30063; [1]) [µg/mL] | MIC (S. aureus UC9213; [2]) [µg/mL] | MIC (S. pneumoniae UC9912; [3]) [µg/mL] | MIC (H. influenzae 30063; [4]) [µg/mL] | SMILES | also measured
32 (≈ 78.7 µM) | 8 (≈ 19.7 µM) | 2 (≈ 4.92 µM) | – | COCC(=O)N1C2CN(c3ccc(N4C[C@H](CNC(C)=O)OC4=O)cc3F)CC21 (stereo partly drawn) [Example 51, N-({(5S)-3-[4-(6-methoxyacetyl-3,6-diazabicyclo[3.1.0]hex-3-yl)-3-fluorophenyl]-2-oxo-1,3-oxazolidin-5-yl}methyl)acetamide] | –
16 (≈ 43.6 µM) | 2 (≈ 5.44 µM) | 0.5 (≈ 1.36 µM) | – | CCC(=O)NC[C@H]1CN(c2cc(F)c(N3CC4OC4C3)c(F)c2)C(=O)O1 (stereo partly drawn) [Example 41, N-({(5S)-3-[3,5-difluoro-4-(6-oxa-3-azabicyclo[3.1.0]hex-3-yl)phenyl]-2-oxo-1,3-oxazolidin-5-yl}methyl)propanamide] | –
32 | 1 | 1 | – | CC(=O)NC[C@H]1CN(c2ccc(N3CC4C(C3)N4C(=O)COC(C)=O)c(F)c2)C(=O)O1 (stereo partly drawn) [Example 52, 2-[3-(4-(5S)-5-[(acetylamino)methyl]-2-oxo-1,3-oxazolidin-3-yl}2-fluorophenyl)-3,6-diazabicyclo[3.1.0]hex-6-yl]-2-oxoethyl acetate] | –
– | – | – | 16 (≈ 47.4 µM) | CC(=O)NC[C@H]1CN(c2ccc(N3CCOCC3)c(F)c2)C(=O)O1 [linezolid, reference compound] | MIC (S. pneumoniae UC9912; UC9912, read-out: MIC against S. pneumoniae (UC 9912)): 1 µg/mL (≈ 2.96 µM)
64 (≈ 170 µM) | 8 (≈ 21.3 µM) | 2 (≈ 5.31 µM) | – | CC(=O)NC[C@H]1CN(c2ccc(N3CC4C(C3)N4C(C)=O)c(F)c2)C(=O)O1 (stereo partly drawn) [Example 50, N-({(5S)-3-[4-(6-acetyl-3,6-diazabicyclo[3.1.0]hex-3-yl)-3-fluorophenyl]-2-oxo-1,3-oxazolidin-5-yl]methyl)acetamide] | –
– | – | – | > 64 | CC(=O)NC[C@H]1CN(c2cc(F)c(N3C[C@@H]4[C@H](C3)[C@H]4NC(=O)Nc3ccccc3)c(F)c2)C(=O)O1 [Example 28, N-{[(5S)-3-(4-{exo-(1R,5S)-6-[(anilinocarbonyl)amino]-3-azabicyclo[3.1.0]hex-3-yl}-3,5-difluorophenyl)-2-oxo-1,3-oxazolidin-5-yl]methyl}acetamide] | –
8 (≈ 22.6 µM) | 1 (≈ 2.83 µM) | 0.5 (≈ 1.42 µM) | – | CC(=O)NC[C@H]1CN(c2cc(F)c(N3CC4OC4C3)c(F)c2)C(=O)O1 (stereo partly shown) [Example 40] | –
